According to ChEMBL document CHEMBL1131978, “3D QSAR studies on new oxazolidinone antibacterial agents by comparative molecular field analysis” (Bioorg Med Chem Lett, 1999):
≈ marks a conversion by molar mass, not a printed value.

System: Staphylococcus aureus
Assay: In vitro antibacterial activity against the methicillin-resistant Staphylococcus aureus 88
Format: functional

SMILES	Log 1/MIC	MIC
CC(=O)NC[C@H]1CN(c2ccc(N3CCN(Cc4cc(-c5ccccn5)no4)CC3)c(F)c2)C(=O)O1	-0.19	1.56 mg/L (≈ 3.15 µM)
COc1cc(CN2CCN(c3ccc(N4C[C@H](CNC(C)=O)OC4=O)cc3F)CC2)on1	-0.49	3.12 mg/L (≈ 6.97 µM)
CC(=O)NC[C@H]1CN(c2ccc(N3CCN(C(=O)c4nccs4)CC3)c(F)c2)C(=O)O1	-0.19	1.56 mg/L (≈ 3.49 µM)
CC(=O)NC[C@H]1CN(c2ccc(N3CCN(C(=O)c4cc(-c5csnn5)no4)CC3)c(F)c2)C(=O)O1	0.11	0.78 mg/L (≈ 1.51 µM)
CC(=O)NC[C@H]1CN(c2ccc(N3CCN(C(=O)c4cc(-c5cccs5)no4)CC3)c(F)c2)C(=O)O1	-0.11	0.78 mg/L (≈ 1.52 µM)
CC(=O)NC[C@H]1CN(c2ccc(N3CCN(C(=O)CO)CC3)c(F)c2)C(=O)O1 [EPEREZOLID]	-0.19	1.56 mg/L (≈ 3.96 µM)
CC(=O)NC[C@H]1CN(c2ccc(N3CCN(C(=O)c4cc(-c5nccs5)no4)CC3)c(F)c2)C(=O)O1	0.41	0.39 mg/L (≈ 0.758 µM)
CC(=O)NC[C@H]1CN(c2ccc(N3CCN(C(=O)c4cc(O)no4)CC3)c(F)c2)C(=O)O1	-1.7	50 mg/L (≈ 112 µM)
CC(=O)NC[C@H]1CN(c2ccc(N3CCN(C(=O)c4cc(COC(=O)N(C)C)no4)CC3)c(F)c2)C(=O)O1	-0.49	3.12 mg/L (≈ 5.86 µM)
CC(=O)NC[C@H]1CN(c2ccc(N3CCN(C(=O)c4cc(Br)no4)CC3)c(F)c2)C(=O)O1	0.11	0.78 mg/L (≈ 1.53 µM)
CCCCCCCCCCS(=O)(=O)N[C@H](CCCCCC)COP(=O)(O)OCCO	-0.19	1.56 mg/L (≈ 3.29 µM)
CC(=O)NC[C@H]1CN(c2ccc(N3CCN(Cc4cc(-c5ccc(Oc6ccccc6)cc5)no4)CC3)c(F)c2)C(=O)O1	-2	100 mg/L (≈ 171 µM)
CC(=O)NC[C@H]1CN(c2ccc(N3CCN(Cc4cc(-c5ccc(C#N)cc5)no4)CC3)c(F)c2)C(=O)O1	-0.8	6.25 mg/L (≈ 12.1 µM)
CC(=O)NC[C@H]1CN(c2ccc(N3CCN(C(=O)c4cc(OCCF)no4)CC3)c(F)c2)C(=O)O1	-0.19	1.56 mg/L (≈ 3.16 µM)
CC(=O)NC[C@H]1CN(c2ccc(N3CCN(C(=O)c4cc(C(N)=O)no4)CC3)c(F)c2)C(=O)O1	-0.19	1.56 mg/L (≈ 3.29 µM)
CC(=O)NC[C@H]1CN(c2ccc(N3CCN(C(=O)c4cc(C)no4)CC3)c(F)c2)C(=O)O1	-0.19	1.56 mg/L (≈ 3.5 µM)
COc1ccc(-c2cc(CN3CCN(c4ccc(N5C[C@H](CNC(C)=O)OC5=O)cc4F)CC3)on2)cc1OC	-0.49	3.12 mg/L (≈ 5.64 µM)

SMILES	Log 1/MIC	MIC
CC(=O)NC[C@H]1CN(c2ccc(N3CCOCC3)c(F)c2)C(=O)O1 [LINEZOLID]		1.56 mg/L (≈ 4.62 µM)
CC(=O)NC[C@H]1CN(c2ccc(N3CCN(Cc4cc(/C=C/c5ccccc5)no4)CC3)c(F)c2)C(=O)O1	-1.4	25 mg/L (≈ 48.1 µM)
COc1cc(C(=O)N2CCN(c3ccc(N4C[C@H](CNC(C)=O)OC4=O)cc3F)CC2)on1	-0.19	1.56 mg/L (≈ 3.38 µM)
CC(=O)NC[C@H]1CN(c2ccc(N3CCN(C(=O)c4ccno4)CC3)c(F)c2)C(=O)O1	-0.19	1.56 mg/L (≈ 3.62 µM)
CC(=O)NC[C@H]1CN(c2ccc(N3CCN(C(=O)c4cc(C#N)no4)CC3)c(F)c2)C(=O)O1	-0.19	1.56 mg/L (≈ 3.42 µM)
CC(=O)NC[C@H]1CN(c2ccc(N3CCN(C(=O)c4cc(COC(N)=O)no4)CC3)c(F)c2)C(=O)O1	-0.19	1.56 mg/L (≈ 3.09 µM)
COc1cccc(-c2cc(CN3CCN(c4ccc(N5C[C@H](CNC(C)=O)OC5=O)cc4F)CC3)on2)c1	-0.49	3.12 mg/L (≈ 5.96 µM)
CC(=O)NC[C@H]1CN(c2ccc(N3CCN(Cc4cc(-c5ccc(F)cc5)no4)CC3)c(F)c2)C(=O)O1	-0.49	3.12 mg/L (≈ 6.1 µM)
CC(=O)NC[C@H]1CN(c2ccc(N3CCN(C(=O)c4cc(-c5cnsn5)no4)CC3)c(F)c2)C(=O)O1	-0.19	1.56 mg/L (≈ 3.03 µM)
CC(=O)NC[C@H]1CN(c2ccc(N3CCN(Cc4cc(-c5ccc(Cl)cc5)no4)CC3)c(F)c2)C(=O)O1	-1.7	50 mg/L (≈ 94.7 µM)
CC(=O)NC[C@H]1CN(c2ccc(N3CCN(C(=O)c4cccs4)CC3)c(F)c2)C(=O)O1	-0.19	1.56 mg/L (≈ 3.49 µM)
CC(=O)NC[C@H]1CN(c2ccc(N3CCN(C(=O)c4cc(Cl)no4)CC3)c(F)c2)C(=O)O1	0.11	0.78 mg/L (≈ 1.67 µM)
CC(=O)NC[C@H]1CN(c2ccc(N3CCN(Cc4cc(-c5ccc(C)cc5)no4)CC3)c(F)c2)C(=O)O1	-1.1	12.5 mg/L (≈ 24.6 µM)
CC(=O)NC[C@H]1CN(c2ccc(N3CCN(C(=O)c4cc(C(F)(F)F)no4)CC3)c(F)c2)C(=O)O1	-0.49	3.12 mg/L (≈ 6.25 µM)
CC(=O)NC[C@H]1CN(c2ccc(N3CCN(C(=O)c4cc(C(=O)N(C)C)no4)CC3)c(F)c2)C(=O)O1	-0.49	3.12 mg/L (≈ 6.21 µM)
CC(=O)NC[C@H]1CN(c2ccc(N3CCN(C(=O)c4cc(C(=O)O)no4)CC3)c(F)c2)C(=O)O1	-2	100 mg/L (≈ 210 µM)
